# Assays:
# [1] = human
# [2] = Highest frequency of acute liver toxicity observed during clinical trials, expressed as a percentage. [column '% AIGUE' in source]; conditions: human
# [3] = human; remark: listed apart in the source
# [4] = Times to onset, minimal and maximal, observed in the indexed observations. [column 'DELAI' in source]; conditions: human
# [5] = human; remark: listed apart in the source
# [6] = human; remark: listed apart in the source
# [7] = human; remark: listed apart in the source
# [8] = Proposed mechanism(s) of liver damage. [column 'MEC' in source]; conditions: human
# [9] = human, serum
# [10] = Comments (NB not yet translated). [column 'COMMENTAIRES' in source]; conditions: human
# [11] = human; remark: listed apart in the source
# [12] = human; remark: listed apart in the source
# [13] = Highest frequency of moderate liver toxicity observed during clinical trials, expressed as a percentage. [column '% BIOL' in source]; conditions: human
# [14] = human; remark: listed apart in the source
# [15] = Presence of at least one case with successful reintroduction. [column 'REINT' in source]; conditions: human
# [16] = human; remark: listed apart in the source
# [17] = human, serum; remark: listed apart in the source
# [18] = human, serum, 4383 h
# 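For Hepatotoxicity (association with vascular disease) in this document: count of indexed literature references reporting vascular liver injury in humans, e.g. peliosis hepatitis, hepatic veno-occlusive disease or Budd-Chiari syndrome.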
# 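For Hepatotoxicity (benign tumour) in this document: value is a count of indexed literature references citing a benign tumour confirmed by histopathology.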
# 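For Hepatotoxicity (choleostasis) in this document: human cholestatic liver injury, shown by histopathology or by peak ALT or AST elevation over alkaline phosphatase ratio below 2, value counts indexed literature reports.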
# 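For Hepatotoxicity (chronic liver disease) in this document: chronic liver injury confirmed by histopathology or persistently raised serum aminotransferase activity beyond 6 months, value given as the count of indexed literature references.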
# 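For Hepatotoxicity (cirrhosis) in this document: value is a count of indexed literature references reporting cirrhosis confirmed by histopathology.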
# 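For Hepatotoxicity (cytolytic) in this document: human cytolytic liver injury, shown by histopathology or by a ratio above 5 of peak ALT or AST elevation to alkaline phosphatase elevation, value counts indexed references.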
# 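For Hepatotoxicity (granulomatous hepatitis) in this document: value is a count of indexed literature references reporting granulomatous liver disease confirmed by histopathology.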
# 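For Hepatotoxicity (malignant tumour) in this document: malignant tumour confirmed by histopathology, value gives the count of indexed literature references reporting it.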
# 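For Hepatotoxicity (severe hepatitis) in this document: human clinical data: severe hepatitis, meaning potentially life-threatening liver failure or clinically observed cases, the value counts how many indexed literature references report it.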
# 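For Hepatotoxicity (steatosis) in this document: steatosis confirmed by histopathology, value is the count of indexed references.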
Compound,Hepatotoxicity (benign tumour) [1],Hepatotoxicity (acute) [2] [%],Hepatotoxicity (association with vascular disease) [3],Hepatotoxicity (time to onset) [4],Hepatotoxicity (granulomatous hepatitis) [5],Hepatotoxicity (steatosis) [6],Hepatotoxicity (choleostasis) [7],Hepatotoxicity (mechanism) [8],Hepatotoxicity (acute) [9],Hepatotoxicity (comment) [10],Hepatotoxicity (cytolytic) [11],Hepatotoxicity (malignant tumour) [12],Hepatotoxicity (moderate) [13] [%],Hepatotoxicity (cirrhosis) [14],Hepatotoxicity (successful reintroduction) [15],Hepatotoxicity (severe hepatitis) [16],Hepatotoxicity (moderate) [17],Hepatotoxicity (chronic liver disease) [18]
c1ccc2[nH]c(-c3cscn3)nc2c1 [THIABENDAZOLE],0,0,0,2 weeks - 1.5 years,0,0,13,Allergic,13,CHOLESTASE_PROLONGEE DUCTOPENIE #CBP,2,0,36,2,yes,0,2,0
CCC(c1ccccc1)c1c(O)c2ccccc2oc1=O (configuration not stated) [PHENPROCOUMON],0,0,0,6 days - 7 years,1,0,7,Allergic,18,RC/ACENOCOUMAROL/WARFARINE CHOLANGITE AC_ANTI-ML/-N,14,0,37,1,yes,4,2,1
COc1cc(C)c(/C=C/C(C)=C/C=C/C(C)=C/C(=O)O)c(C)c1C [ACITRETIN],0,10,0,1.5 hours - 5 months,0,0,1,Dose-dependant,12,CHOLANGIOLITE CHOLESTASE_PROLONGEE AGGRAVATION_HVA,5,0,30,1,yes,0,16,2
NNc1nnc(NN)c2ccccc12 [DIHYDRALAZINE],0,0.1,0,2 days - 3 years,0,1,5,Allergic,21,AC_ANTI-MF/-M/-N/-CYP1A2,17,0,0,0,yes,1,0,4

# Reference: ChEMBL document CHEMBL3137667, “[Drug-induced liver injury; fourteenth updated edition of the bibliographic database of liver injuries and related drugs]” (Gastroenterol Clin Biol, 2004)
